PubChem BioAssay AID2060607 (Molecular Pharmacology Branch, DTP, NCI, 2025)
pIC50: −log10 of the molar value. Values belong to the compound of their own block, whether it stands above or below them.

Tested on: 876862-298-R-J1-PDC complex spheroids, viability % test/control
Experiment: Anticancer human tumor 876862-298-R-J1-PDC patient-derived endometrial carcinoma cell line growth inhibition [CLK]
Settings: for pIC50: curve of first compound; for viability, T/C: stronger effect = lower value
How it was run: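 Multi-cell-type spheroids combined patient-derived tumor cells with HUVEC endothelial cells and human mesenchymal stem cells. Paired agents were dosed in half-log steps down from about clinical Cmax, or from 10 microM where Cmax was unknown.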

[1] = second compound 0.0316 µM, first compound 0.0316 µM
[2] = second compound 0.0316 µM, first compound 0.1 µM
[3] = second compound 0.0316 µM, first compound 0.316 µM
[4] = second compound 0.0316 µM, first compound 1 µM
[5] = second compound 0.0316 µM, first compound 3.16 µM
[6] = second compound 0.0316 µM, first compound 10 µM
[7] = second compound 0.1 µM, first compound 0.0316 µM
[8] = second compound 0.1 µM, first compound 0.1 µM
[9] = second compound 0.1 µM, first compound 0.316 µM
[10] = second compound 0.1 µM, first compound 1 µM
[11] = second compound 0.1 µM, first compound 3.16 µM
[12] = second compound 0.1 µM, first compound 10 µM
[13] = second compound 0.316 µM, first compound 0.0316 µM
[14] = second compound 0.316 µM, first compound 0.1 µM
[15] = second compound 0.316 µM, first compound 0.316 µM
[16] = second compound 0.316 µM, first compound 1 µM
[17] = second compound 0.316 µM, first compound 3.16 µM
[18] = second compound 0.316 µM, first compound 10 µM
[19] = second compound 1 µM, first compound 0.0316 µM
[20] = second compound 1 µM, first compound 0.1 µM
[21] = second compound 1 µM, first compound 0.316 µM
[22] = second compound 1 µM, first compound 1 µM
[23] = second compound 1 µM, first compound 3.16 µM
[24] = second compound 1 µM, first compound 10 µM
[25] = second compound 3.16 µM, first compound 0.0316 µM
[26] = second compound 3.16 µM, first compound 0.1 µM
[27] = second compound 3.16 µM, first compound 0.316 µM
[28] = second compound 3.16 µM, first compound 1 µM
[29] = second compound 3.16 µM, first compound 3.16 µM
[30] = second compound 3.16 µM, first compound 10 µM
[31] = second compound 10 µM, first compound 0.0316 µM
[32] = second compound 10 µM, first compound 0.1 µM
[33] = second compound 10 µM, first compound 0.316 µM
[34] = second compound 10 µM, first compound 1 µM
[35] = second compound 10 µM, first compound 3.16 µM
[36] = second compound 10 µM, first compound 10 µM
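Note: spheroids exposed to drugs for 7 days before readout.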
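Throughout, for viability, T/C: 100% = DMSO vehicle control wells.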

SMILES: C#Cc1c(F)ccc2cc(O)cc(-c3ncc4c(N5CC6CCC(C5)N6)nc(OCC56CCCN5CC(F)C6)nc4c3F)c12 (stereo not given) + CNC(=O)c1ccc(Nc2nc(OC3CCCC3)c3c(-c4ccc5nc(C)oc5c4)c[nH]c3n2)c(OC)c1
pIC50 (second compound 0.0316 µM): < 5.00
pIC50 (second compound 0.1 µM): > 7.50
pIC50 (second compound 0.316 µM): > 7.50
pIC50 (second compound 1 µM): > 7.50
pIC50 (second compound 3.16 µM): > 7.50
pIC50 (second compound 10 µM): > 7.50
viability, T/C [1]: 65.6%
viability, T/C [2]: 88.8%
viability, T/C [3]: 71.9%
viability, T/C [4]: 75.3%
viability, T/C [5]: 76.3%
viability, T/C [6]: 71.4%
viability, T/C [7]: 46.5%
viability, T/C [8]: 52.8%
viability, T/C [9]: 42.7%
viability, T/C [10]: 46.6%
viability, T/C [11]: 49.9%
viability, T/C [12]: 38.2%
viability, T/C [13]: 38%
viability, T/C [14]: 40.4%
viability, T/C [15]: 38.9%
viability, T/C [16]: 41.7%
viability, T/C [17]: 39.6%
viability, T/C [18]: 34.4%
viability, T/C [19]: 33.5%
viability, T/C [20]: 34.9%
viability, T/C [21]: 27.7%
viability, T/C [22]: 30.5%
viability, T/C [23]: 32.9%
viability, T/C [24]: 26.2%
viability, T/C [25]: 23.6%
viability, T/C [26]: 22.1%
viability, T/C [27]: 22.8%
viability, T/C [28]: 21.7%
viability, T/C [29]: 24.9%
viability, T/C [30]: 20.2%
viability, T/C [31]: 20.1%
viability, T/C [32]: 20.4%
viability, T/C [33]: 21.4%
viability, T/C [34]: 21.6%
viability, T/C [35]: 20.3%
viability, T/C [36]: 19.4%

SMILES: CCCS(=O)(=O)Nc1ccc(F)c(C(=O)c2c[nH]c3ncc(-c4ccc(Cl)cc4)cc23)c1F + CNC(=O)c1ccc(Nc2nc(OC3CCCC3)c3c(-c4ccc5nc(C)oc5c4)c[nH]c3n2)c(OC)c1
pIC50 (second compound 0.0316 µM): 5.15
pIC50 (second compound 0.1 µM): > 7.50
pIC50 (second compound 0.316 µM): > 7.50
pIC50 (second compound 1 µM): > 7.50
pIC50 (second compound 3.16 µM): > 7.50
pIC50 (second compound 10 µM): > 7.50
viability, T/C [1]: 72.1%
viability, T/C [2]: 89.1%
viability, T/C [3]: 88.1%
viability, T/C [4]: 90.9%
viability, T/C [5]: 68.2%
viability, T/C [6]: 42%
viability, T/C [7]: 40.2%
viability, T/C [8]: 54.9%
viability, T/C [9]: 50.5%
viability, T/C [10]: 49.2%
viability, T/C [11]: 40.4%
viability, T/C [12]: 26.6%
viability, T/C [13]: 45.6%
viability, T/C [14]: 41.2%
viability, T/C [15]: 43.8%
viability, T/C [16]: 40.1%
viability, T/C [17]: 31.7%
viability, T/C [18]: 18.1%
viability, T/C [19]: 36.9%
viability, T/C [20]: 32%
viability, T/C [21]: 30.7%
viability, T/C [22]: 32.7%
viability, T/C [23]: 22.4%
viability, T/C [24]: 12.7%
viability, T/C [25]: 23.5%
viability, T/C [26]: 25.1%
viability, T/C [27]: 21.2%
viability, T/C [28]: 26.1%
viability, T/C [29]: 19.1%
viability, T/C [30]: 10.8%
viability, T/C [31]: 23.1%
viability, T/C [32]: 21.4%
viability, T/C [33]: 21%
viability, T/C [34]: 22.3%
viability, T/C [35]: 15.9%
viability, T/C [36]: 10.4%

SMILES: COC1C=CCC(C)C(C)S(=O)(=O)NC(=O)c2ccc3c(c2)N(CC2CCC21)CC1(CCCc2cc(Cl)ccc21)CO3 (stereo not given) + CNC(=O)c1ccc(Nc2nc(OC3CCCC3)c3c(-c4ccc5nc(C)oc5c4)c[nH]c3n2)c(OC)c1
pIC50 (second compound 0.0316 µM): 5.19
pIC50 (second compound 0.1 µM): > 7.50
pIC50 (second compound 0.316 µM): > 7.50
pIC50 (second compound 1 µM): > 7.50
pIC50 (second compound 3.16 µM): > 7.50
pIC50 (second compound 10 µM): > 7.50
viability, T/C [1]: 72%
viability, T/C [2]: 92.5%
viability, T/C [3]: 66.1%
viability, T/C [4]: 104%
viability, T/C [5]: 86.2%
viability, T/C [6]: 29.1%
viability, T/C [7]: 46.2%
viability, T/C [8]: 45.4%
viability, T/C [9]: 37.3%
viability, T/C [10]: 32.2%
viability, T/C [11]: 30.3%
viability, T/C [12]: 21.5%
viability, T/C [13]: 40.3%
viability, T/C [14]: 33.6%
viability, T/C [15]: 29.8%
viability, T/C [16]: 24.8%
viability, T/C [17]: 20.5%
viability, T/C [18]: 19.1%
viability, T/C [19]: 31.9%
viability, T/C [20]: 25.8%
viability, T/C [21]: 20.6%
viability, T/C [22]: 17.6%
viability, T/C [23]: 13.8%
viability, T/C [24]: 13.5%
viability, T/C [25]: 26.1%
viability, T/C [26]: 20.3%
viability, T/C [27]: 15.6%
viability, T/C [28]: 12%
viability, T/C [29]: 9.4%
viability, T/C [30]: 7.9%
viability, T/C [31]: 22.6%
viability, T/C [32]: 19%
viability, T/C [33]: 12.3%
viability, T/C [34]: 12.3%
viability, T/C [35]: 9.91%
viability, T/C [36]: 5.3%

Further lines, with some results ahead:

pIC50 (second compound 0.0316 µM): 5.32
pIC50 (second compound 0.1 µM): > 7.50
pIC50 (second compound 0.316 µM): > 7.50
pIC50 (second compound 1 µM): > 7.50
pIC50 (second compound 3.16 µM): > 7.50
pIC50 (second compound 10 µM): > 7.50
SMILES: C=C(F)C(=O)N1CCN(c2nc(OCC3CCCN3C)nc3c2CCN(c2cccc4cccc(Cl)c24)C3)CC1CC#N (stereo not given) + CNC(=O)c1ccc(Nc2nc(OC3CCCC3)c3c(-c4ccc5nc(C)oc5c4)c[nH]c3n2)c(OC)c1
viability, T/C [1]: 61.2%
viability, T/C [2]: 84.6%
viability, T/C [3]: 74.5%
viability, T/C [4]: 84.6%
viability, T/C [5]: 87.3%
viability, T/C [6]: 1.29%
viability, T/C [7]: 47.9%
viability, T/C [8]: 49.9%
viability, T/C [9]: 47.5%
viability, T/C [10]: 48.3%
viability, T/C [11]: 38.8%
viability, T/C [12]: 2.57%
viability, T/C [13]: 42.1%
viability, T/C [14]: 39.7%
viability, T/C [15]: 43.1%
viability, T/C [16]: 39.1%
viability, T/C [17]: 31.5%
viability, T/C [18]: 1.59%
viability, T/C [19]: 33.1%
viability, T/C [20]: 33.1%
viability, T/C [21]: 32.6%
viability, T/C [22]: 27.1%
viability, T/C [23]: 27.6%
viability, T/C [24]: 0.79%
viability, T/C [25]: 22.3%
viability, T/C [26]: 24.6%
viability, T/C [27]: 22.1%
viability, T/C [28]: 21.8%
viability, T/C [29]: 21.8%
viability, T/C [30]: 0.16%
viability, T/C [31]: 23.3%
viability, T/C [32]: 22.4%
viability, T/C [33]: 19.5%
viability, T/C [34]: 21.6%
viability, T/C [35]: 18.6%
viability, T/C [36]: 0.21%

pIC50 (second compound 0.0316 µM): < 5.00
pIC50 (second compound 0.1 µM): 6.49
pIC50 (second compound 0.316 µM): > 7.50
pIC50 (second compound 1 µM): > 7.50
pIC50 (second compound 3.16 µM): > 7.50
pIC50 (second compound 10 µM): > 7.50
SMILES: C=CC(=O)N1CCN(c2nc(=O)n(-c3c(C)ccnc3C(C)C)c3nc(-c4c(O)cccc4F)c(F)cc23)C(C)C1 (stereo not given) + CNC(=O)c1ccc(Nc2nc(OC3CCCC3)c3c(-c4ccc5nc(C)oc5c4)c[nH]c3n2)c(OC)c1
viability, T/C [1]: 70.2%
viability, T/C [2]: 84.2%
viability, T/C [3]: 69%
viability, T/C [4]: 90.2%
viability, T/C [5]: 80.9%
viability, T/C [6]: 60.5%
viability, T/C [7]: 52.4%
viability, T/C [8]: 54.5%
viability, T/C [9]: 46%
viability, T/C [10]: 46.9%
viability, T/C [11]: 50.2%
viability, T/C [12]: 41%
viability, T/C [13]: 42.7%
viability, T/C [14]: 43.5%
viability, T/C [15]: 42.2%
viability, T/C [16]: 39.6%
viability, T/C [17]: 46.1%
viability, T/C [18]: 35.2%
viability, T/C [19]: 32.4%
viability, T/C [20]: 29.6%
viability, T/C [21]: 30.1%
viability, T/C [22]: 29.3%
viability, T/C [23]: 29.3%
viability, T/C [24]: 23.3%
viability, T/C [25]: 24%
viability, T/C [26]: 25.2%
viability, T/C [27]: 23.1%
viability, T/C [28]: 21.6%
viability, T/C [29]: 23.5%
viability, T/C [30]: 13.6%
viability, T/C [31]: 24.6%
viability, T/C [32]: 19.5%
viability, T/C [33]: 19.1%
viability, T/C [34]: 22.7%
viability, T/C [35]: 20.1%
viability, T/C [36]: 10.2%
